Results published in patent US20240327393A1 (SIRONAX LTD., priority 2021, published 2024).

Tested on: HT-1080 (ATCC, CCL-121) cells
Test: HT-1080 cell viability assay with ferroptosis inducer RSL3 (Cell Titer-Glo)
Format: cell-based
Conditions: Homo sapiens; HT-1080 cells treated with RSL3; 3-fold, 10-point dilution, 1.1 μM highest concentration; Table 3; read-out: EC50 (nM), ferroptosis inhibitory activity
Summary of the method: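 EC50 was derived by sigmoidal dose-response regression of CellTiter-Glo luminescence viability, expressed relative to untreated wells. Compounds were tested in a ten-point, threefold dilution series (highest 1.1 μM) in the presence of the ferroptosis inducer RSL3. HT-1080 cells had been seeded at 6000 per well and grown overnight first.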

Row | SMILES | EC50 [nM]
1 | Cc1cc(N2CCC(C(F)(F)F)CC2)ccc1Nc1ccc2c(c1)OC(CN)C(=O)N2 (stereo not drawn) [Compound 592, 2-(aminomethyl)-7-((2-methyl-4-(4-(trifluoromethyl)piperidin-1-yl)phenyl)amino)-2H-benzo[b][1,4]oxazin-3(4H)-one] | 0.1 to 100
2 | Cc1cc(N2CCC(C(F)(F)F)CC2)ccc1Nc1ccc2c(c1)SCC(=O)N2 [Compound 593, 7-((2-methyl-4-(4-(trifluoromethyl)piperidin-1-yl)phenyl)amino)-2H-benzo[b][1,4]thiazin-3(4H)-one] | 0.1 to 100
3 | CC1CCN(c2ccc(Nc3cnc4c(c3)OCC(=O)N4)cc2)CC1 [Compound 596, 7-((4-(4-methylpiperidin-1-yl)phenyl)amino)-2H-pyrido[3,2-b][1,4]oxazin-3(4H)-one] | 0.1 to 100
4 | Cc1cc(N2CCC(F)(F)C2)ccc1Nc1ccc2c(c1)OCC(=O)N2 [Compound 597, 7-((4-(3,3-difluoropyrrolidin-1-yl)-2-methylphenyl)amino)-2H-benzo[b][1,4]oxazin-3(4H)-one] | 0.1 to 100
5 | Cc1cc(N2CCC(C(F)(F)F)CC2)ccc1Nc1ccc2c(c1)CC(N)C(=O)N2 (stereo not drawn) [Compound 598, 3-amino-6-((2-methyl-4-(4-(trifluoromethyl)piperidin-1-yl)phenyl)amino)-3,4-dihydroquinolin-2(1H)-one] | 0.1 to 100
6 | CC(C)(C)C(=O)NN1C(=O)COc2cc(Nc3ccc(N4CCC(C(F)(F)F)CC4)cc3)ccc21 [Compound 600, N-(3-oxo-7-((4-(4-(trifluoromethyl)piperidin-1-yl)phenyl)amino)-2,3-dihydro-4H-benzo[b][1,4]oxazin-4-yl)pivalamide] | 0.1 to 100
7 | Cc1cc(N2CCC(C(F)(F)F)CC2)ccc1Nc1ccc2c(c1)OC[C@H](N)C(=O)N2 [Compound 601, (S)-8-(4-(4-(trifluoromethyl)piperidin-1-yl)-2-methylphenylamino)-3-amino-2,3-dihydrobenzo[b][1,4]oxazepin-4(5H)-one] | 0.1 to 100
8 | Cc1cc(N2CCC(C(F)(F)F)CC2)ccc1Nc1ccn2ccnc2c1 [Compound 606, N-(2-methyl-4-(4-(trifluoromethyl)piperidin-1-yl)phenyl) imidazo[1,2-a]pyridin-7-amine] | 100 to 1000
9 | Cc1cc(N2CCC(C(F)(F)F)CC2)cc2c1[nH]c1cc3cnn(C(N)=O)c3cc12 [Compound 615, 6-methyl-8-(4-(trifluoromethyl)piperidin-1-yl)pyrazolo[4,3-b]carbazole-1(5H)-carboxamide] | 1000 to 10000
10 | COC1(C(F)(F)F)CCN(c2ccc(Nc3ccc4c(c3)OCC(=O)N4)c(C)c2)C1 (stereo not drawn) [Compound 616, 7-((4-(3-methoxy-3-(trifluoromethyl)pyrrolidin-1-yl)-2-methylphenyl)amino)-2H-benzo[b][1,4]oxazin-3(4H)-one] | 0.1 to 100
11 | Cc1cc(N2CCC(O)(C(F)(F)F)C2)ccc1Nc1ccc2c(c1)OCC(=O)N2 (stereo not drawn) [Compound 617, 7-((4-(3-hydroxy-3-(trifluoromethyl)pyrrolidin-1-yl)-2-methylphenyl)amino)-2H-benzo[b][1,4]oxazin-3(4H)-one] | 0.1 to 100
12 | O=C1COc2cc(Nc3ccc(N4CCC(C(F)(F)F)CC4)cc3)cc(F)c2N1 [Compound 619, 5-fluoro-7-({4-[4-(trifluoromethyl)piperidin-1-yl]phenyl}amino)-2,4-dihydro-1,4-benzoxazin-3-one] | 0.1 to 100
13 | Cc1cc(N2CCC(F)(F)C2)ccc1Nc1ccc2c(c1)OCCC(=O)N2 [Compound 622, 8-((4-(3,3-difluoropyrrolidin-1-yl)-2-methylphenyl)amino)-2,3-dihydrobenzo[b][1,4]oxazepin-4(5H)-one] | 0.1 to 100
14 | Cc1cc(N2CCC(C(F)(F)F)CC2)ccc1Nc1ccn2ncc(C(N)=O)c2c1 [Compound 625, 5-((2-methyl-4-(4-(trifluoromethyl)piperidin-1-yl)phenyl)amino) pyrazolo[1,5-a]pyridine-3-carboxamide] | 0.1 to 100
15 | Cc1cc(N2CC(F)(F)C2)ccc1Nc1ccc2c(c1)OCCC(=O)N2 [Compound 626, 8-((4-(3,3-difluoroazetidin-1-yl)-2-methylphenyl)amino)-2,3-dihydrobenzo[b][1,4]oxazepin-4(5H)-one] | 0.1 to 100
16 | Cc1cc(N2CC(F)(F)C2)ccc1Nc1ccc2c(c1)OCC(N)C(=O)N2 (stereo not drawn) [Compound 627, 3-amino-8-((4-(3,3-difluoroazetidin-1-yl)-2-methylphenyl)amino)-2,3-dihydrobenzo[b][1,4]oxazepin-4(5H)-one] | 0.1 to 100

Continued, values first:

Row | EC50 [nM] | SMILES
17 | 0.1 to 100 | Cc1cc(N2CCC(C(F)(F)F)CC2)ccc1Nc1ccc2c(c1)OCCC(=O)N2C [Compound 594, 5-methyl-8-((2-methyl-4-(4-(trifluoromethyl)piperidin-1-yl)phenyl)amino)-2,3-dihydrobenzo[b][1,4]oxazepin-4(5H)-one]
18 | 0.1 to 100 | Cc1cc(N2CC(C)(F)C2)ccc1Nc1ccc2c(c1)OCC(=O)N2 [Compound 595, 7-((4-(3-fluoro-3-methylazetidin-1-yl)-2-methylphenyl)amino)-2H-benzo[b][1,4]oxazin-3(4H)-one]
19 | 0.1 to 100 | Cc1cc(N2CCC(F)C2)ccc1Nc1ccc2c(c1)OCC(=O)N2 (stereo not drawn) [Compound 599, 7-{[4-(3-fluoropyrrolidin-1-yl)-2-methylphenyl]amino}-2,4-dihydro-1,4-benzoxazin-3-one]
20 | 0.1 to 100 | Cc1cc(N2CCC(C(F)(F)F)CC2)ccc1Nc1ccc2c(c1)OC(CO)C(=O)N2 (stereo not drawn) [Compound 602, 2-(hydroxymethyl)-7-((2-methyl-4-(4-(trifluoromethyl)piperidin-1-yl)phenyl)amino)-2H-benzo[b][1,4]oxazin-3(4H)-one]
21 | 0.1 to 100 | CCC1CN(c2ccc(Nc3ccc4c(c3)ncn4C)c(C)n2)CCO1 (stereo not drawn) [Compound 603, N-[6-(2-ethylmorpholin-4-yl)-2-methylpyridin-3-yl]-1-methyl-1,3-benzodiazol-5-amine]
22 | 0.1 to 100 | Cc1cc(N2CCC(C)C2)ccc1Nc1ccc2c(c1)OCC(=O)N2 (stereo not drawn) [Compound 604, 7-((2-methyl-4-(3-methylpyrrolidin-1-yl)phenyl)amino)-2H-benzo[b][1,4]oxazin-3(4H)-one]
23 | 0.1 to 100 | Cc1nc(N2C[C@@H](C)O[C@@H](C)C2)ccc1Nc1ccc2c(c1)ncn2C [Compound 605, N-(6-((2S,6R)-2,6-dimethylmorpholino)-2-methylpyridin-3-yl)-1-methyl-1H-benzo[d] imidazol-5-amine]
24 | 0.1 to 100 | Cc1cc(N2CCC(C(F)(F)F)CC2)ccc1Nc1ccc2c(c1)OC(CN)C(=O)N2C (stereo not drawn) [Compound 607, 2-(aminomethyl)-4-methyl-7-((2-methyl-4-(4-(trifluoromethyl)piperidin-1-yl)phenyl)amino)-2H-benzo[b][1,4]oxazin-3(4H)-one]
25 | 0.1 to 100 | Cc1cc(N2CCC(C(F)(F)F)CC2)ccc1Nc1ccc2c(c1)OCC(=O)NC2 [Compound 608, 8-((2-methyl-4-(4-(trifluoromethyl)piperidin-1-yl)phenyl)amino)-4,5-dihydrobenzo[f][1,4]oxazepin-3(2H)-one]
26 | 0.1 to 100 | CNCc1cnc2cc(Nc3ccc(N4CCC(C(F)(F)F)CC4)cc3C)ccn12 [Compound 609, N-(2-methyl-4-(4-(trifluoromethyl)piperidin-1-yl)phenyl)-3-((methylamino)methyl)imidazo[1,2-a]pyridin-7-amine]
27 | 0.1 to 100 | Cc1cc(N2CC(F)C2)ccc1Nc1ccc2c(c1)OCCC(=O)N2 [Compound 610, 8-((4-(3-fluoroazetidin-1-yl)-2-methylphenyl)amino)-2,3-dihydrobenzo[b][1,4]oxazepin-4(5H)-one]
28 | 0.1 to 100 | Cc1cc(N2CC(F)C2)ccc1Nc1ccc2c(c1)OC[C@H](N)C(=O)N2 [Compound 611, (S)-3-amino-8-((4-(3-fluoroazetidin-1-yl)-2-methylphenyl)amino)-2,3-dihydrobenzo[b][1,4]oxazepin-4(5H)-one]
29 | 0.1 to 100 | Cc1cc(N2CCC(C(F)(F)F)CC2)ccc1Nc1ccn2nccc2c1 [Compound 612, N-(2-methyl-4-(4-(trifluoromethyl)piperidin-1-yl)phenyl) pyrazolo[1,5-a]pyridin-5-amine]
30 | 0.1 to 100 | Cc1cc(N2CCC(C(F)(F)F)C2)ccc1Nc1ccc2c(c1)OCC(N)C(=O)N2 (stereo not drawn) [Compound 613, 3-amino-8-((2-methyl-4-(3-(trifluoromethyl)pyrrolidin-1-yl)phenyl)amino)-2,3-dihydrobenzo[b][1,4]oxazepin-4(5H)-one]
31 | 0.1 to 100 | Cc1cc(N2CC(OC(F)(F)F)C2)ccc1Nc1ccc2c(c1)OCCC(=O)N2 [Compound 614, 8-((2-methyl-4-(3-(trifluoromethoxy)azetidin-1-yl)phenyl)amino)-2,3-dihydrobenzo[b][1,4]oxazepin-4(5H)-one]
32 | 0.1 to 100 | COC1CCN(c2ccc(Nc3ccc4c(c3)OCC(=O)N4)c(C)c2)C1 (stereo not drawn) [Compound 618, 7-{[4-(3-methoxypyrrolidin-1-yl)-2-methylphenyl]amino}-2,4-dihydro-1,4-benzoxazin-3-one]
33 | 0.1 to 100 | COCCn1c(=O)n(C)c2ccc(Nc3ccc(N4CCC(C(F)(F)F)C4)cc3C)cc21 (stereo not drawn) [Compound 620, 3-(2-methoxyethyl)-1-methyl-5-((2-methyl-4-(3-(trifluoromethyl)pyrrolidin-1-yl)phenyl)amino)-1,3-dihydro-2H-benzo[d]imidazol-2-one]
34 | 0.1 to 100 | Cc1cc(N2CC(OC(F)(F)F)C2)ccc1Nc1ccc2c(c1)OCC(=O)N2 [Compound 621, 7-((2-methyl-4-(3-(trifluoromethoxy)azetidin-1-yl)phenyl)amino)-2H-benzo[b][1,4]oxazin-3(4H)-one]
35 | 0.1 to 100 | Cc1cc(N2CC(C)(F)C2)ccc1Nc1ccc2c(c1)OCCC(=O)N2 [Compound 623]
36 | 0.1 to 100 | Cc1cc(N2CCC(C(F)(F)F)CC2)ccc1Nc1ccc2nccn2c1 [Compound 624, N-(2-methyl-4-(4-(trifluoromethyl)piperidin-1-yl)phenyl) imidazo[1,2-a]pyridin-6-amine]
